Measurements from ChEMBL document CHEMBL1151327, “Cytotoxicity of curcuminoids and some novel compounds from Curcuma zedoaria” (1998).
In brackets after ≈: the same amount, converted by molar mass. Activity calls are given as the source filed them. The rule behind the calls is not given here.

What follows are molecules tested on OVCAR-3 (assay: Cytotoxicity against human OVCAR-3 after 48 hrs). Details: OVCAR-3, 48 h, read-out: CD50 (the source's name).
Format: functional

SMILES | CC50 [µg/mL]
COc1cc(/C=C/C(=O)CC(=O)/C=C/c2ccc(O)c(OC)c2)ccc1O [CURCUMIN] | 4.4 (≈ 11.9 µM)
COc1cc(/C=C/C(O)=C/C(=O)/C=C/c2ccc(O)cc2)ccc1O [DEMETHOXYCURCUMIN] | 3.8 (≈ 11.2 µM)
O=C(/C=C/c1ccc(O)cc1)CC(=O)/C=C/c1ccc(O)cc1 [BISDEMETHOXYCURCUMIN] | 3.1 (≈ 10.1 µM)

These molecules were tested on OVCAR-3 (assay: Cytotoxicity against human OVCAR-3 upto 20 ug/mL after 48 hrs). Details: not given.
Format: functional, cell-based

SMILES | Activity
Cc1coc2c1C(=O)[C@@H]1[C@@](C)(C2)[C@H](O)CC[C@@]1(C)O | inactive
Cc1cc(C(=O)O)cc2c1CCC2C (stereo unspecified) | inactive
C=C(C)[C@@H]1CC[C@](C)(O)[C@H]2CC[C@](C)(O)[C@H]2C1 | inactive
